Measured values from ChEMBL document CHEMBL4033623, “Synthesis of xanthone derivatives and studies on the inhibition against cancer cells growth and synergistic combinations of them” (Eur J Med Chem, 2017).
Active and inactive are the calls of the source. The calls are words filed in the database; no cut-off is given here.

Columns and labels:
[1] = system: MCF7; test: Antiproliferative activity against human MCF7 cells after 48 hrs by CCK8 assay; type: functional, cell-based; details: MCF7, 48 h
[2] = system: HepG2; test: Antiproliferative activity against human HepG2 cells after 48 hrs by CCK8 assay; type: functional, cell-based; details: HepG2, 48 h
[3] = system: MDA-MB-231; test: Antiproliferative activity against human MDA-MB-231 cells after 48 hrs by CCK8 assay; type: functional, cell-based; details: MDA-MB-231, 48 h
[4] = system: K562; test: Antiproliferative activity against human K562 cells after 48 hrs by CCK8 assay; type: functional, cell-based; details: K562, 48 h
[5] = system: COLO 320; test: Antiproliferative activity against human COLO320 cells after 48 hrs by CCK8 assay; type: functional, cell-based; details: COLO 320, 48 h
[6] = system: MCF7; test: Synergistic antiproliferative activity against human MCF7 cells at compound to DMXAA mol ratio of 1:1 after 48 hrs by CCK8 assay; type: functional, cell-based; details: MCF7, 48 h
[7] = system: HepG2; test: Synergistic antiproliferative activity against human HepG2 cells at compound to DMXAA mol ratio of 1:1 after 48 hrs by CCK8 assay; type: functional, cell-based; details: HepG2, 48 h
[8] = system: K562; test: Synergistic antiproliferative activity against human K562 cells at compound to DMXAA mol ratio of 1:1 after 48 hrs by CCK8 assay; type: functional, cell-based; details: K562, 48 h
[9] = system: COLO 320; test: Synergistic antiproliferative activity against human COLO320 cells at compound to DMXAA mol ratio of 1:1 after 48 hrs by CCK8 assay; type: functional, cell-based; details: COLO 320, 48 h
[10] = system: MDA-MB-231; test: Synergistic antiproliferative activity against human MDA-MB-231 cells at compound to DMXAA mol ratio of 1:1 after 48 hrs by CCK8 assay; type: functional, cell-based; details: MDA-MB-231, 48 h
[11] = system: MDA-MB-231; test: Induction of apoptosis in human MDA-MB-231 cells assessed as increase in cleaved PARP level at 24 to 96 uM after 48 hrs by Western blot analysis; type: functional, cell-based
[12] = system: MDA-MB-231; test: Induction of apoptosis in human MDA-MB-231 cells assessed as viable cells at 24 uM after 48 hrs by Annexin-V/FITC/PI staining based flow cytometry (reference value: 88.78 %); type: functional; details: MDA-MB-231, 48 h, read-out: Activity
[13] = system: MDA-MB-231; test: Increase in p53 level in human MDA-MB-231 cells at 24 to 96 uM after 48 hrs by Western blot analysis; type: functional, cell-based
[14] = system: MDA-MB-231; test: Induction of apoptosis in human MDA-MB-231 cells assessed as late apoptotic cells at 48 uM after 48 hrs by Annexin-V/FITC/PI staining based flow cytometry (reference value: 1.18 %); type: functional
[15] = system: MDA-MB-231; test: Induction of apoptosis in human MDA-MB-231 cells assessed as early apoptotic cells at 48 uM after 48 hrs by Annexin-V/FITC/PI staining based flow cytometry (reference value: 0.03 %); type: functional
[16] = system: MDA-MB-231; test: Induction of apoptosis in human MDA-MB-231 cells after 48 hrs by Annexin-V/FITC/PI staining based flow cytometry; type: functional, cell-based
[17] = system: MDA-MB-231; test: Decrease in caspase-3 level in human MDA-MB-231 cells at 24 to 96 uM after 48 hrs by Western blot analysis; type: functional, cell-based
[18] = system: MDA-MB-231; test: Induction of apoptosis in human MDA-MB-231 cells assessed as late apoptotic cells at 96 uM after 48 hrs by Annexin-V/FITC/PI staining based flow cytometry (reference value: 1.18 %); type: functional
[19] = system: MDA-MB-231; test: Induction of apoptosis in human MDA-MB-231 cells assessed as late apoptotic cells at 24 uM after 48 hrs by Annexin-V/FITC/PI staining based flow cytometry (reference value: 1.18 %); type: functional
[20] = system: MDA-MB-231; test: Induction of apoptosis in human MDA-MB-231 cells assessed as early apoptotic cells at 96 uM after 48 hrs by Annexin-V/FITC/PI staining based flow cytometry (reference value: 0.03 %); type: functional
[21] = system: MDA-MB-231; test: Decrease in caspase-9 level in human MDA-MB-231 cells at 24 to 96 uM after 48 hrs by Western blot analysis; type: functional, cell-based
[22] = system: MDA-MB-231; test: Induction of apoptosis in human MDA-MB-231 cells assessed as necrotic cells at 24 uM after 48 hrs by Annexin-V/FITC/PI staining based flow cytometry (reference value: 10.01 %); type: functional
[23] = system: MDA-MB-231; test: Induction of apoptosis in human MDA-MB-231 cells assessed as increase in cleaved caspase-3 expression at 24 to 96 uM after 48 hrs by Western blot analysis; type: functional, cell-based
[24] = system: MDA-MB-231; test: Cell cycle arrest in human MDA-MB-231 cells assessed as increase in accumulation at G2/M phase at 48 uM after 48 hrs by propidium iodide staining based flow cytometric method relative to control; type: functional
[25] = system: MDA-MB-231; test: Induction of apoptosis in human MDA-MB-231 cells assessed as viable cells at 96 uM after 48 hrs by Annexin-V/FITC/PI staining based flow cytometry (reference value: 88.78 %); type: functional; details: MDA-MB-231, 48 h, read-out: Activity
[26] = system: MDA-MB-231; test: Induction of apoptosis in human MDA-MB-231 cells assessed as necrotic cells at 48 uM after 48 hrs by Annexin-V/FITC/PI staining based flow cytometry (reference value: 10.01 %); type: functional
[27] = system: MDA-MB-231; test: Induction of apoptosis in human MDA-MB-231 cells assessed as necrotic cells at 96 uM after 48 hrs by Annexin-V/FITC/PI staining based flow cytometry (reference value: 10.01 %); type: functional
[28] = system: MDA-MB-231; test: Induction of apoptosis in human MDA-MB-231 cells assessed as viable cells at 48 uM after 48 hrs by Annexin-V/FITC/PI staining based flow cytometry (reference value: 88.78 %); type: functional; details: MDA-MB-231, 48 h, read-out: Activity
[29] = system: MDA-MB-231; test: Induction of apoptosis in human MDA-MB-231 cells assessed as early apoptotic cells at 24 uM after 48 hrs by Annexin-V/FITC/PI staining based flow cytometry (reference value: 0.03 %); type: functional
[30] = system: MDA-MB-231; test: Decrease in MDM2 level in human MDA-MB-231 cells at 24 to 96 uM after 48 hrs by Western blot analysis; type: functional, cell-based

IC50 [1] [µM]	IC50 [2] [µM]	IC50 [3] [µM]	IC50 [4] [µM]	IC50 [5] [µM]	Compound	further results
31.2	> 200	25.1	106	> 200	O=c1c2cc(O)ccc2oc2cc(O)cc(O)c12	–
23.4	33.8	23.8	28.5	23.7	O=c1c2cccc(O)c2oc2cc(O)cc(O)c12	–
31.6	55.3	33	60.1	36.4	O=c1c2c(O)cccc2oc2cc(O)cc(O)c12	–
41.9	23.7	95.6	45.1	55.1	O=c1c2ccc(O)cc2oc2c(O)cccc12	–
13.4	23.8	43.8	43.5	53.7	O=c1c2cc(O)ccc2oc2c(O)cccc12	–
11.2	11.7	11.6	45.1	15.1	O=c1c2ccccc2oc2cc(O)cc(O)c12	–
112	124	55.6	55.6	105	O=c1c2ccc(O)cc2oc2cc(O)cc(O)c12	–
101	83.8	65.9	156	85.1	O=c1c2cc(O)c(O)cc2oc2cccc(O)c12	–
1.2	3.2	5.2	5.2	15.2	O=c1c2cc(Cl)ccc2oc2cc(O)cc(O)c12	IC50 [6]: 1.15 µM; IC50 [7]: 4.22 µM; IC50 [8]: 2.27 µM; IC50 [9]: 9.15 µM; IC50 [10]: 3.1 µM
43.2	23.7	23.6	13.1	23	O=c1c2cc(O)c(O)cc2oc2cc(O)cc(O)c12	–
4.2	12.7	8.6	5.1	27.1	Cc1ccc2c(=O)c3c(O)cc(O)cc3oc2c1	IC50 [6]: 2.06 µM; IC50 [7]: 8.75 µM; IC50 [8]: 4.65 µM; IC50 [9]: 22.8 µM; IC50 [10]: 2.63 µM
43.7	87.3	87.3	82.3	77.3	O=c1c2ccc(O)cc2oc2c(O)c(O)ccc12	–

Continued, compound first:

Compound	IC50 [1] [µM]	IC50 [2] [µM]	IC50 [3] [µM]	IC50 [4] [µM]	IC50 [5] [µM]	further results
O=c1c2ccccc2oc2c(O)c(O)ccc12 [3,4-DIHYDROXYXANTHONE]	93.2	89.7	124	103	73	–
COc1cc(OC)c2c(=O)c3ccc(O)cc3oc2c1	11.2	8.7	9.6	29.1	12.1	IC50 [6]: 14.1 µM; IC50 [7]: 8.43 µM; IC50 [8]: 26.2 µM; IC50 [9]: 10.2 µM; IC50 [10]: 9.13 µM
O=c1c2ccc(O)cc2oc2ccc(O)cc12	92.4	52.2	32.4	88.9	31.5	–
COc1cc(O)c2c(=O)c3c(OC)cccc3oc2c1	34.3	32.7	34.7	34.2	35.7	–
O=c1c2cc(Br)ccc2oc2c(O)c(O)ccc12	104	63.8	83.2	53.5	63.1	–
Cc1ccc2c(=O)c3cccc(O)c3oc2c1	83.4	93.8	43.8	93.5	53.7	–
Cc1ccc2c(=O)c3cccc(CC(=O)O)c3oc2c1C [VADIMEZAN]	54.4	100	48.4	57.4	39.5	Activity [11]: Active; viability at 24 µM [12]: 80.7%; Activity [13]: Active; Activity [14]: 17.03%; Activity [15]: 2.22%; Activity [16]: Dose-dependent effect; Activity [17]: Active; Activity [18]: 14.93%; Activity [19]: 6.65%; Activity [20]: 4.48%; Activity [21]: Active; Activity [22]: 12.09%; Activity [23]: Active; Activity [24]: 25%; viability at 96 µM [25]: 58.8%; Activity [26]: 14.88%; Activity [27]: 21.83%; viability at 48 µM [28]: 65.9%; Activity [29]: 0.53%; Activity [30]: Active
O=c1c2cc(Cl)ccc2oc2c(O)cccc12	13	37.3	57.1	52.1	87.5	–
O=c1c2cc(O)ccc2oc2ccc(O)cc12 [EUXANTHONE]	128	> 200	83.5	73.5	91.2	–
COc1cc(OC)c2c(=O)c3cc(Br)ccc3oc2c1	43.1	87.1	87.1	52.1	77.1	–
COc1cc(OC)c2c(=O)c3cc(Cl)ccc3oc2c1	21.4	31.2	11.4	19.4	11.5	–
O=c1c2ccccc2oc2cc(O)ccc12	121	85.3	93	> 200	> 200	–
O=c1c2cc(Br)ccc2oc2c(O)cccc12	22.9	82.6	12.5	> 200	102	–
O=c1c2ccccc2oc2ccc(Cl)cc12	> 200	62	69.4	> 200	96.7	–
O=c1c2cc(Cl)ccc2oc2cccc(O)c12	53.1	> 200	67.1	62	> 200	–
COc1cc(OC)c2c(=O)c3c(O)cccc3oc2c1	21.1	83.8	25.9	25.1	25.9	–
COc1ccc2c(=O)c3cc(O)ccc3oc2c1	23.4	> 200	> 200	> 200	93.7	–
O=c1c2ccc(O)cc2oc2cc(O)ccc12	91.3	61.7	31.7	31.2	37.7	–
O=c1c2ccc(O)cc2oc2ccc(Cl)cc12	41.2	43.7	45.6	45.1	55.1	–
O=c1c2cc(O)ccc2oc2c(O)c(O)ccc12	> 200	> 200	53.1	63.1	83.1	–
O=c1c2cc(O)ccc2oc2cc(O)c(O)cc12	28.1	63.3	23.5	73.5	93.2	–
